From patent publication US7906655B2, “Hepatitis C virus inhibitors” (Bristol-Myers Squibb Company, priority 2008, dated 2011)
pEC50: −log10 of the molar value.

System: HCV 1b genotype
Test: HCV Replicon assay (HCV-neo replicon cells, wild-type)
Format: cell-based
Conditions: HCV 1b genotype replicon
Procedure, shortened: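 Inhibition was measured in HCV-neo (genotype 1b) replicon cells. Some assay versions used luciferase reporters.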

[1] = Hepatitis C virus, class symbols
[2] = Hepatitis C virus, numeric values

SMILES: O=C(CCOc1ccccc1)N1CCC[C@H]1c1nc2ccc(C#Cc3ccc4[nH]c([C@@H]5CCCN5C(=O)[C@H]5CCCO5)nc4c3)cc2[nH]1 [Example M54.15, 5-((2-((2S)-1-(3-phenoxypropanoyl)-2-pyrrolidinyl)-1H-benzimidazol-6-yl)ethynyl)-2-((2S)-1-((2R)-tetrahydro-2-furanylcarbonyl)-2-pyrrolidinyl)-1H-benzimidazole]
- pEC50 [1]: 7.00 to 8.34

SMILES: CN(C)[C@@H](C(=O)N1CCC[C@H]1c1nc2cc(-c3cnc(-c4cccc5[nH]c([C@@H]6CCCN6C(=O)[C@@H](c6ccccc6)N(C)C)nc45)o3)ccc2[nH]1)c1ccccc1 [Example J11, (1R)-2-((2S)-2-(4-(5-(2-((2S)-1-((2R)-2-(dimethyl-amino)-2-phenylacetyl)-2-pyrrolidinyl)-1H-benzimidazol-5-yl)-1,3-oxazol-2-yl)-1H-benzimidazol-2-yl)-1-pyrrolidinyl)-N,N-dimethyl-2-oxo-1-phenyl-ethanamine]
- pEC50 [1]: > 8.34

SMILES: O=C(Cc1ccccc1)N1CCC[C@H]1c1nc2cc(C#Cc3ccc4[nH]c([C@@H]5CCCN5C(=O)[C@H]5CCCO5)nc4c3)ccc2[nH]1 [Example M47, 5-((2-((2S)-1-(phenylacetyl)-2-pyrrolidinyl)-1H-benzimidazol-6-yl)ethynyl)-2-((2S)-1-((2R)-tetrahydro-2-furanylcarbonyl)-2-pyrrolidinyl)-1H-benzimidazole]
- pEC50 [1]: > 8.34

SMILES: O=C(c1ccccc1)N1CCC[C@H]1c1nc2cc(C#Cc3ccc4nc([C@@H]5CCCN5C(=O)c5ccccc5)[nH]c4c3)ccc2[nH]1 [Example M6, 2-((2S)-1-benzoyl-2-pyrrolidinyl)-5-((2-((2S)-1-benzoyl-2-pyrrolidinyl)-1H-benzimidazol-6-yl)ethynyl)-1H-benzimidazole]
- pEC50 [1]: 7.00 to 8.34

SMILES: O=C(C1CC1)N1CCC[C@H]1c1nc2ccc(CCc3ccc4nc([C@@H]5CCCN5C(=O)C5CC5)[nH]c4c3)cc2[nH]1 [Example M41, 2-((2S)-1-(cyclopropylcarbonyl)-2-pyrrolidinyl)-5-(2-(2-((2S)-1-(cyclopropylcarbonyl)-2-pyrrolidinyl)-1H-benzimidazol-6-yl)ethyl)-1H-benzimidazole]
- pEC50 [2]: 6.34

SMILES: CC(=O)N1CCN(C(=O)OCc2ccccc2)[C@H](c2nc3cc(CCc4ccc5[nH]c([C@@H]6CN(C(C)=O)CCN6C(=O)OCc6ccccc6)nc5c4)ccc3[nH]2)C1 (stereo in doubt) [OL11, benzyl 4-acetyl-2-(5-(2-(2-(4-acetyl-1-((benzyloxy)carbonyl)-2-piperazinyl)-1H-benzimidazol-6-yl)ethyl)-1H-benzimidazol-2-yl)-1-piperazinecarboxylate]
- pEC50 [1]: 6.00 to 7.00

SMILES: O=C([C@H]1CCCO1)N1CCC[C@H]1c1nc2cc(CCc3ccc4[nH]c([C@@H]5CCCN5C(=O)[C@H]5CCCO5)nc4c3)ccc2[nH]1 [Example M42, 5,5′-(1,2-ethanediyl)bis(2-((2S)-1-((2R)-tetrahydro-2-furanylcarbonyl)-2-pyrrolidinyl)-1H-benzimidazole)]
- pEC50 [1]: 7.00 to 8.34

SMILES: C[C@@H](c1nc2cc(C#Cc3ccc4[nH]c([C@H](C)N(C)C(=O)Cc5ccccc5)nc4c3)ccc2[nH]1)N(C)C(=O)Cc1ccccc1 [Example M32]
- pEC50 (class symbols): > 8.34

SMILES: CC(=O)N1CCC[C@H]1c1nc2ccc(C#Cc3ccc4[nH]c([C@@H]5CCCN5C(=O)[C@H]5CCCO5)nc4c3)cc2[nH]1 [Example M54.25, 5-((2-((2S)-1-acetyl-2-pyrrolidinyl)-1H-benzimidazol-6-yl)ethynyl)-2-((2S)-1-((2R)-tetrahydro-2-furanylcarbonyl)-2-pyrrolidinyl)-1H-benzimidazole]
- pEC50 [1]: 6.00 to 7.00

SMILES: O=C(c1nc(Cl)cc2ccccc12)N1CCC[C@H]1c1nc2cc(C#Cc3ccc4nc([C@@H]5CCCN5C(=O)c5nc(Cl)cc6ccccc56)[nH]c4c3)ccc2[nH]1 [Example M26.2, 3-chloro-1-(((2S)-2-(5-((2-((2S)-1-((3-chloro-1-isoquinolinyl)carbonyl)-2-pyrrolidinyl)-1H-benzimidazol-6-yl)ethynyl)-1H-benzimidazol-2-yl)-1-pyrrolidinyl)carbonyl)isoquinoline]
- pEC50 [1]: 6.00 to 7.00

SMILES: O=C(c1ccccc1)N1CCC[C@H]1c1nc2ccc(C#Cc3ccc4[nH]c([C@@H]5CCCN5C(=O)[C@H]5CCCO5)nc4c3)cc2[nH]1 [Example M54.1, 5-((2-((2S)-1-benzoyl-2-pyrrolidinyl)-1H-benzimidazol-6-yl)ethynyl)-2-((2S)-1-((2R)-tetrahydro-2-furanylcarbonyl)-2-pyrrolidinyl)-1H-benzimidazole]
- pEC50 [1]: 7.00 to 8.34

SMILES: COc1cccc2c(C(=O)N3CCC[C@H]3c3nc4cc(-c5cnc(-c6cccc7[nH]c([C@@H]8CCCN8C(=O)c8nc(Cl)cc9c(OC)cccc89)nc67)o5)ccc4[nH]3)nc(Cl)cc12 [Example J15, 3-chloro-1-(((2S)-2-(4-(5-(2-((2S)-1-((3-chloro-5-methoxy-1-isoquinolinyl)carbonyl)-2-pyrrolidinyl)-1H-benzimidazol-5-yl)-1,3-oxazol-2-yl)-1H-benzimidazol-2-yl)-1-pyrrolidinyl)carbonyl)-5-methoxy-isoquinoline]
- pEC50 [2]: < 5.00

SMILES: O=C(C1CCC1)N1CCC[C@H]1c1nc2ccc(C#Cc3ccc4[nH]c([C@@H]5CCCN5C(=O)[C@H]5CCCO5)nc4c3)cc2[nH]1 [Example M54.10, 5-((2-((2S)-1-(cyclobutyl-carbonyl)-2-pyrrolidinyl)-1H-benzimidazol-6-yl)ethynyl)-2-((2S)-1-((2R)-tetrahydro-2-furanylcarbonyl)-2-pyrrolidinyl)-1H-benzimidazole]
- pEC50 [1]: 7.00 to 8.34

SMILES: CC(=O)N1CCC[C@H]1c1nc2cc(C#Cc3ccc4[nH]c([C@@H]5CCCN5C(=O)OCc5ccccc5)nc4c3)ccc2[nH]1 [Example M54.26, benzyl (2S)-2-(5-((2-((2S)-1-acetyl-2-pyrrolidinyl)-1H-benzimidazol-5-yl)ethynyl)-1H-benzimidazol-2-yl)-1-pyrrolidine-carboxylate]
- pEC50 [1]: 7.00 to 8.34

SMILES: O=C(C1CC1)N1CCC[C@H]1c1nc2cc(C#Cc3ccc4nc([C@@H]5CCCN5C(=O)C5CC5)[nH]c4c3)ccc2[nH]1 [Example M4, 2-((2S)-1-(cyclopropylcarbonyl)-2-pyrrolidinyl)-5-((2-((2S)-1-(cyclopropylcarbonyl)-2-pyrrolidinyl)-1H-benzimidazol-6-yl)ethynyl)-1H-benzimidazole]
- pEC50 [1]: 7.00 to 8.34

SMILES: CC(=O)N[C@@H](C(=O)N1CCC[C@H]1c1nc2cc(-c3ccc4nc([C@@H]5CCCN5C(=O)[C@H](NC(C)=O)c5ccccc5)[nH]c4c3)ccc2[nH]1)c1ccccc1 [Example F7, N,N′-(1H,1′H-5,5′-bibenzimidazole-2,2′-diylbis((2S)-2,1-pyrrolidinediyl((1R)-2-oxo-1-phenyl-2,1-ethanediyl)))diacetamide]
- pEC50 [1]: 7.00 to 8.34

SMILES: CCCOc1ccccc1C(=O)N1CCC[C@H]1c1nc2ccc(C#Cc3ccc4[nH]c([C@@H]5CCCN5C(=O)[C@H]5CCCO5)nc4c3)cc2[nH]1 [Example M54.12, 5-((2-((2S)-1-(2-propoxybenzoyl)-2-pyrrolidinyl)-1H-benzimidazol-6-yl)ethynyl)-2-((2S)-1-((2R)-tetrahydro-2-furanylcarbonyl)-2-pyrrolidinyl)-1H-benzimidazole]
- pEC50 [1]: 6.00 to 7.00

SMILES: C[C@H](NC(=O)[C@@](C)(O)c1ccccc1)c1nc2cc(C#Cc3ccc4[nH]c([C@H](C)NC(=O)[C@@](C)(O)c5ccccc5)nc4c3)ccc2[nH]1 [Example M28]
- pEC50 (class symbols): > 8.34

SMILES: COC(=O)NC(C(=O)N1[C@@H]2C[C@@H]2C[C@H]1c1nc2cc(-c3ccc(Oc4cccc5[nH]c([C@@H]6C[C@H]7C[C@H]7N6C(=O)C(NC(=O)OC)c6ccccc6)nc45)cc3)ccc2[nH]1)c1ccccc1 (stereo partly drawn) [Example V10, methyl (2-((1R,3S,5R)-3-(5-(4-((2-((1R,3S,5R)-2-(((methoxycarbonyl)amino)(phenyl)acetyl)-2-azabicyclo[3.1.0]hex-3-yl)-1H-benzimidazol-4-yl)oxy)phenyl)-1H-benzimidazol-2-yl)-2-azabicyclo[3.1.0]hex-2-yl)-2-oxo-1-phenylethyl) carbamate]
- pEC50 (class symbols): > 8.34

SMILES: COC(=O)N[C@H](C(=O)N1CCC[C@H]1c1nc2cc(-c3ccc(Oc4cccc5[nH]c([C@@H]6CCCN6C(=O)[C@@H](NC(=O)OC)C(C)C)nc45)cc3)ccc2[nH]1)C(C)C [Example V11, Methyl((1S)-1-(((2S)-2-(4-(4-(2-((2S)-1-((2S)-2-((methoxycarbonyl)amino)-3-methylbutanoyl)-2-pyrrolidinyl)-1H-benzimidazol-5-yl)phenoxy)-1H-benzimidazol-2-yl)-1-pyrrolidinyl)carbonyl)-2-methylpropyl)carbamate]
- pEC50 [1]: > 8.34

SMILES: CCc1ccccc1C(=O)N1CCC[C@H]1c1nc2ccc(C#Cc3ccc4[nH]c([C@@H]5CCCN5C(=O)[C@H]5CCCO5)nc4c3)cc2[nH]1 [Example M54.2]
- pEC50 (class symbols): 6.00 to 7.00

SMILES: COC(=O)N[C@H](C(=O)N1[C@@H]2C[C@@H]2C[C@H]1c1nc2ccc(-c3ccc(-c4ccc5nc([C@@H]6C[C@H]7C[C@H]7N6C(=O)[C@@H](NC(=O)OC)C(C)C)[nH]c5c4)cc3)cc2[nH]1)C(C)C [Example M46, methyl((1S)-1-(((1R,3S,5R)-3-(6-(4-(2-((1R,3S,5R)-2-((2S)-2-((methoxycarbonyl)amino)-3-methylbutanoyl)-2-azabicyclo[3.1.0]hex-3-yl)-1H-benzimidazol-6-yl)phenyl)-1H-benzimidazol-2-yl)-2-azabicyclo[3.1.0]hex-2-yl)carbonyl)-2-methylpropyl)carbamate]
- pEC50 [2]: 11.22

SMILES: CC(=O)N1CCC[C@H]1c1nc2ccc(C#Cc3ccc4[nH]c([C@@H]5CCCN5C(=O)N5CCN(C)CC5)nc4c3)cc2[nH]1 [Example M55, 5-((2-((2S)-1-acetyl-2-pyrrolidinyl)-1H-benzimidazol-6-yl)ethynyl)-2-((2S)-1-((4-methyl-1-piperazinyl)carbonyl)-2-pyrrolidinyl)-1H-benzimidazole]
- pEC50 [1]: 6.00 to 7.00

SMILES: CC(C)(C)O[C@@H]1C[C@@H](c2nc3cc(CCc4ccc5nc([C@@H]6C[C@@H](OC(C)(C)C)CN6C(=O)OCc6ccccc6)[nH]c5c4)ccc3[nH]2)N(C(=O)OCc2ccccc2)C1 [OL5, benzyl (2S,4R)-2-(5-(2-(2-((2S,4R)-1-((benzyloxy)carbonyl)-4-tert-butoxy-2-pyrrolidinyl)-1H-benzimidazol-6-yl)ethyl)-1H-benzimidazol-2-yl)-4-tert-butoxy-1-pyrrolidinecarboxylate]
- pEC50 [1]: 6.00 to 7.00
